Values belong to the molecule of their own block, whether it stands above or below them.
Legend:
human PDE2 = target: T1, human PDE2 (Homo sapiens, UniProt O00408); assay: PDE2 enzyme assay (PDE selectivity); type: biochemical; conditions: read-out: PDE2 (% inhibit at 10 μM)
T1 construct: MDS Pharma Services
Description: (§1) The phosphodiesterase selectivity of 2,5-Diamino-4-(4-chloro-phenyl)-thieno[2,3-d]pyrimidine-6-carboxylic acid amide was assessed by testing against bovine PDE1, human PDE2, PDE3 and PDE5 from human platelets and PDE6 from bovine retinal rod outer segments (MDS Pharma Services).

[1] = target: T2, PDE3 from human platelets (Homo sapiens, UniProt Q14432); assay: PDE3 enzyme assay (PDE selectivity); type: biochemical; conditions: read-out: PDE3 (% inhibit at 10 μM)
T2 construct: PDE3 and PDE5 from human platelets; tissue MDS Pharma Services; host or cells: human platelets
T2 sequence (Q14432 whole entry): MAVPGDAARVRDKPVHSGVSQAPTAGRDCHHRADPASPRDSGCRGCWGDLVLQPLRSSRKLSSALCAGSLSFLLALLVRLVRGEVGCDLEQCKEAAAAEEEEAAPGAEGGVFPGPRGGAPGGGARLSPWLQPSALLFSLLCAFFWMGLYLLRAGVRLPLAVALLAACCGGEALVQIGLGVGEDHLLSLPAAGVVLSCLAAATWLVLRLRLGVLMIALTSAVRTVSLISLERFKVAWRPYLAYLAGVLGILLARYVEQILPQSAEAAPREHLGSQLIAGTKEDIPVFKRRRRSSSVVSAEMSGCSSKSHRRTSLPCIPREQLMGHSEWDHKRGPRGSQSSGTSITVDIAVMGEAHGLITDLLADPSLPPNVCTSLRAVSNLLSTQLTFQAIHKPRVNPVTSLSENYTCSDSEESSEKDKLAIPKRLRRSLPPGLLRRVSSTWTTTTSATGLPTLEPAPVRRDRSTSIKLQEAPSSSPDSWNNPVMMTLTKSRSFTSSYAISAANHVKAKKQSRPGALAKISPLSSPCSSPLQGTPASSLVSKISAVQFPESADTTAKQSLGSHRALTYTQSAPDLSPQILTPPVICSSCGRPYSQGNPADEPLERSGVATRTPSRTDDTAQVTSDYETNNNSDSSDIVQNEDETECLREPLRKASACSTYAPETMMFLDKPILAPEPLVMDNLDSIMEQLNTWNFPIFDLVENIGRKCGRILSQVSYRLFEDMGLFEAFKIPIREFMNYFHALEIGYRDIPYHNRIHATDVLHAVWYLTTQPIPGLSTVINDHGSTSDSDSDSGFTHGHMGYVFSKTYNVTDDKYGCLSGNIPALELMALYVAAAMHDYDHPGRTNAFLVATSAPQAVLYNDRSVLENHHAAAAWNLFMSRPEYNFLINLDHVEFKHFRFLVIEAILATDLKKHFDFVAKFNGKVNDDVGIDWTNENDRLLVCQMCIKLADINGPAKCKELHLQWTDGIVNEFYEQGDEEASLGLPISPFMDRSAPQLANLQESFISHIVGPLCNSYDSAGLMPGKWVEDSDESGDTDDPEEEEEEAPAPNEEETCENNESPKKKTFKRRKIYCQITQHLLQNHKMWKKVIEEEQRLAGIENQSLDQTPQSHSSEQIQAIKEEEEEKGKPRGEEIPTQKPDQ
Description: as §1

bovine PDE1 = assay: PDE1 enzyme assay (PDE selectivity); type: biochemical
Description: as §1

[2] = target: T3, PDE6 from bovine retinal rod outer segments (Bos taurus, UniProt P11541+P23439); assay: PDE6 enzyme assay (PDE selectivity); type: biochemical; conditions: read-out: PDE6 (% inhibit at 10 μM)
T3 construct: PDE6 from bovine retinal rod outer segments; tissue MDS Pharma Services; host or cells: bovine retinal rod outer segments
T3 sequence (P11541 2-856 limits assumed): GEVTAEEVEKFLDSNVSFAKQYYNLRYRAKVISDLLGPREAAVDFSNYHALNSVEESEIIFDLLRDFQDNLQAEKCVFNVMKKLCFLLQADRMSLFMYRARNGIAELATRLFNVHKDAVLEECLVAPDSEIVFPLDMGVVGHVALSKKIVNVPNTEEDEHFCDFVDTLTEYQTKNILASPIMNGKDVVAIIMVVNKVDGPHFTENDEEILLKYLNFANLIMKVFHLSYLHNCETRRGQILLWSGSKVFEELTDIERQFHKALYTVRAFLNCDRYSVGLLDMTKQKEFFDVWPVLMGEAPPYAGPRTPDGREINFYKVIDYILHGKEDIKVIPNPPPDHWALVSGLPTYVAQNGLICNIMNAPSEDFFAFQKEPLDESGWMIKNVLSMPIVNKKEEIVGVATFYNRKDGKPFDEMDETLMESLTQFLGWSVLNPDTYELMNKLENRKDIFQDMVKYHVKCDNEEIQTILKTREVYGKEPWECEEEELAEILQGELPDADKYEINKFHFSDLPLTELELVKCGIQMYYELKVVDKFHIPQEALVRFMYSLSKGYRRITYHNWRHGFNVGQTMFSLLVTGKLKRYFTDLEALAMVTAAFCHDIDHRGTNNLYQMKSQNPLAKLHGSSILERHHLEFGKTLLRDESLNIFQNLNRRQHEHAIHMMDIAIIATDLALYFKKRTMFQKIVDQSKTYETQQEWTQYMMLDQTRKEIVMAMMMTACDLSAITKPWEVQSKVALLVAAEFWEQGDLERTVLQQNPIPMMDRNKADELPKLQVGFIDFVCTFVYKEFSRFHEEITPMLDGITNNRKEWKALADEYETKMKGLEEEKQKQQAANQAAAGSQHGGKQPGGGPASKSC
T3 sequence (P23439 2-850 limits assumed): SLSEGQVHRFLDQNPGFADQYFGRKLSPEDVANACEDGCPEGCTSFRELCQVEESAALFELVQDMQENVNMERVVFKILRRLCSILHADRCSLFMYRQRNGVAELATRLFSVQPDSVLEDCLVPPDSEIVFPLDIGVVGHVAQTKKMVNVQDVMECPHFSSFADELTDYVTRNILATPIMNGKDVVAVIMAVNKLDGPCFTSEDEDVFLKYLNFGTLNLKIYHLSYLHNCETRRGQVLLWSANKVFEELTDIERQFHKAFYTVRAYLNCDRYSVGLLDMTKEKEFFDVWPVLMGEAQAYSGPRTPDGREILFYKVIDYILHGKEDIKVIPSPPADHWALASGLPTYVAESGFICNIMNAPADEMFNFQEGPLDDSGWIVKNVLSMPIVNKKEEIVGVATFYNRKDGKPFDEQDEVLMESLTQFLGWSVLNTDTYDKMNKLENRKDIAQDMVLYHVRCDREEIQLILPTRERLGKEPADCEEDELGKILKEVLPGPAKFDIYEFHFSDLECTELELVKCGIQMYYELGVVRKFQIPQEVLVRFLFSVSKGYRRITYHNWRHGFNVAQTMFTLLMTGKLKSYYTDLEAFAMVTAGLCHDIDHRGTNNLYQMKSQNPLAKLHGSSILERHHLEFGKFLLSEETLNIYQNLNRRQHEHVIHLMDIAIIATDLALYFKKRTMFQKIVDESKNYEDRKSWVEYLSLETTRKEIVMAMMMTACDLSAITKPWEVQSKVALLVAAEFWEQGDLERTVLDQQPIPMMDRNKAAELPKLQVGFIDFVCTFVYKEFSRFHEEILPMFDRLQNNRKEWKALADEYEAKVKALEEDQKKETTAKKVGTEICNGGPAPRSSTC
Description: as §1

[3] = tested on: PDE4 enzyme purified from U937 human monocytic cells; assay: PDE4 (U937 cell-derived) enzyme assay; type: biochemical
Description: PDE4 enzyme is purified from U937 human monocytic cells by gel filtration chromatography as previously described (Muller et al. Bioorg. & Med Chem Lett 8:2669-2674 (1998)). Phosphodiesterase reactions are carried out in 50 mM Tris HCl pH 7.5, 5 mM MgCl2, 1 μM cAMP, 10 nM [^3H]-cAMP for 30 minutes at 30° C., terminated by boiling, treated with 1 mg/ml snake venom and separated using AG-1XS ion exchange resin (BioRad) as described (Id). Reactions consumed less than 15% of available substrate.

[4] = target: T4, PDE5 from human platelets (Homo sapiens, UniProt O76074); assay: PDE5 enzyme assay (PDE selectivity); type: biochemical; conditions: read-out: PDE5 (% inhibit at 10 μM)
T4 construct: PDE3 and PDE5 from human platelets; tissue MDS Pharma Services; host or cells: human platelets
Description: as §1

T1 sequence (O00408 whole entry): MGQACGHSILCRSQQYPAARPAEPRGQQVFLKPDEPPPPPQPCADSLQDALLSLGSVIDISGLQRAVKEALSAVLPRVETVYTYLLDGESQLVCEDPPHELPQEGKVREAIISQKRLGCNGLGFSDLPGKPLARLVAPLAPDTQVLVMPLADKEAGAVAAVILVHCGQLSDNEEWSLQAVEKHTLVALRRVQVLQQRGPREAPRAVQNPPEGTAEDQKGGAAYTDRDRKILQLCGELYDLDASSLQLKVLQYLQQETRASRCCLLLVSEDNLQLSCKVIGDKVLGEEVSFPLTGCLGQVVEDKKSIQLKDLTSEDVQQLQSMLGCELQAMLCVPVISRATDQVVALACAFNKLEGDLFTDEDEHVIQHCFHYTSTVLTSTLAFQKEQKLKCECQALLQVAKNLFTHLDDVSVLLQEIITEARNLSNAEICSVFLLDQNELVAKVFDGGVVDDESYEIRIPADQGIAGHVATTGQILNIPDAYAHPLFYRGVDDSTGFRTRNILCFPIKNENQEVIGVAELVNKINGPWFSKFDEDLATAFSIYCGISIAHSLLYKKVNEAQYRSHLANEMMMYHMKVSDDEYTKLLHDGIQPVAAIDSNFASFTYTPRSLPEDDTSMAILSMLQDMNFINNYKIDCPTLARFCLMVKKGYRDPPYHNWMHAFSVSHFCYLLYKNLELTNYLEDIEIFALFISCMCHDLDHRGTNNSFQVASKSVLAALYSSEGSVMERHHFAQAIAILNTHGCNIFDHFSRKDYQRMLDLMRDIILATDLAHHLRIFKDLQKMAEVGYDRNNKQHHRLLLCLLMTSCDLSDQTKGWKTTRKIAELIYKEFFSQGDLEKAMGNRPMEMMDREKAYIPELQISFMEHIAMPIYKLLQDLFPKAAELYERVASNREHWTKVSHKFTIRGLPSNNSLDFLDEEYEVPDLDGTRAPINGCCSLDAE

inhibition at 10 µM (human PDE2): 8%
inhibition at 10 µM [1]: 14%
PDE1 (% inhibit at 10 μM) (bovine PDE1): 18%
inhibition at 10 µM [2]: 8%
IC50 [3]: 120 nM
inhibition at 10 µM [4]: -2%
SMILES: NC(=O)c1sc2nc(N)nc(-c3ccc(Cl)cc3)c2c1N [2,5-Diamino-4-(4-chloro-phenyl)-thieno[2,3-d]pyrimidine-6-carboxylic acid amide]

melting point: 285 °C
SMILES: NC(=O)c1sc2ncnc(-c3cc(O)c4c(c3)OCC4)c2c1N [Example 5.2.141, 5-amino-4-(4-hydroxy-2,3-dihydrobenzofuran-6-yl)thieno[2,3-d]pyrimidine-6-carboxamide]

melting point: 177 to 179 °C
SMILES: NC(=O)c1sc2ncnc(-c3cccc(NC(=O)Nc4ccncc4)c3)c2c1N [Example 5.2.166, 5-amino-4-{3-[(4-pyridylamino)carbonylamino]phenyl}-thiopheno[2,3-d]pyrimidine-6-carboxamide]

melting point: 199 to 200 °C
SMILES: NC(=O)c1sc2ncnc(-c3cccc(NC(=O)Nc4cccnc4)c3)c2c1N [Example 5.2.167, 5-amino-4-{3-[(3-pyridylamino)carbonylamino]phenyl}-thiopheno[2,3-d]pyrimidine-6-carboxamide]

melting point: 201 to 203 °C
SMILES: NC(=O)c1sc2ncnc(-c3cccc(NC(=O)Nc4cccc(C(F)(F)F)c4)c3)c2c1N [Example 5.2.169, 5-amino-4-[3-({[3-(trifluoromethyl)phenyl]amino}-carbonylamino)phenyl]thiopheno[2,3-d]pyrimidine-6-carboxamide]

melting point: 172 to 175 °C
SMILES: NC(=O)c1sc2ncnc(-c3cccc(NC(=O)Nc4ccccc4C(F)(F)F)c3)c2c1N [Example 5.2.170, 5-amino-4-[3-({[2-(trifluoromethyl)phenyl]amino}-carbonylamino)phenyl]thiopheno[2,3-d]pyrimidine-6-carboxamide]

Reference: patent US20080004271A1, “Inhibitors of TNFalpha, PDE4 and B-RAF, compositions thereof and methods of use therewith” (priority 2006, published 2008)
